The results in this text go back to patent US11708369B2, “Heteroaromatic compounds having activity against RSV” (Janssen Sciences Ireland Unlimited Company, priority 2018, dated 2023).

One series is described as follows: in vitro. To be noted: human.
For the next series, the system named is rgRSV224 virus. Briefly: Antiviral activity: rgRSV224 (GFP) replication in HeLa cells. To be noted: human respiratory syncytial virus, 72 h, read-out: RSV HELA EC50.

Description for in vitro: The wells contain 0.05% DMSO per volume. Cells were incubated at 37° C. in a 5% CO2 atmosphere. […] In parallel, compounds were incubated for three days in a set of white 384-well microtiter plates (Corning) and the cytotoxicity of compounds in HeLa cells was determined by measuring the ATP content of the cells using the ATPlite kit (Perkin Elmer, Zaventem, Belgium) according to the manufacturer's instructions. The CC50 was defined as the 50% concentration for cytotoxicity.
Description for rgRSV224 virus: Black 384-well clear-bottom microtiter plates (Corning, Amsterdam, The Netherlands) were filled via acoustic drop ejection using the echo liquid handler (Labcyte, Sunnyvale, Calif.). 200 nL of compound stock solutions (100% DMSO) were transferred to the assay plates. 9 serial 4-fold dilutions of compound were made, creating per quadrant the same compound concentration. The assay was initiated by adding 10 μL of culture medium to each well (RPMI medium without phenol red, 10% FBS-heat inactivated, 0.04% gentamycin (50 mg/mL). All addition steps are done by using a multidrop dispenser (Thermo Scientific, Erembodegem, Belgium). Next, rgRSV224 virus (MOI=1) diluted in culture medium was added to the plates. rgRSV224 virus is an engineered virus that includes an additional GFP gene (Hallak L K, Spillmann D, Collins P L, Peeples M E. Glycosaminoglycan sulfation requirements for respiratory syncytial virus infection; Journal of virology (2000), 74(22), 10508-13) and was in-licensed from the NIH (Bethesda, Md., USA). Finally, 20 μL of a HeLa cell suspension (3,000 cells/well) were plated. Medium, virus- and mock-infected controls were included in each test. The wells contain 0.05% DMSO per volume. Cells were incubated at 37° C. in a 5% CO2 atmosphere. Three days post-virus exposure, viral replication was quantified by measuring GFP expression in the cells by an in house developed MSM laser microscope (Tibotec, Beerse, Belgium). The EC50 was defined as the 50% inhibitory concentration for GFP expression. In parallel, compounds were incubated for three days in a set of white 384-well microtiter plates (Corning) and the cytotoxicity of compounds in HeLa cells was determined by measuring the ATP content of the cells using the ATPlite kit (Perkin Elmer, Zaventem, Belgium) according to the manufacturer's instructions. The CC50 was defined as the 50% concentration for cytotoxicity.

As a reminder, the EC50 is the concentration that produces a half-maximal response. As for `CCc1cc(C(=O)N2CCc3ccccc3[C@H]2C)cc2cc(-c3ccc(N4CC[C@H](C(=O)O)C4)cc3F)cn12` [Compound 3, (3S)-1-(4-{5-Ethyl-7-[(1R)-1-methyl-1,2,3,4-tetrahydroisoquinoline-2-carbonyl]indolizin-2-yl}-3-fluorophenyl)pyrrolidine-3-carboxylic Acid], the CC50 at 3 days in “in vitro” turned out to be 44 µM. The EC50 in the series on rgRSV224 virus amounted to 0.218 µM.
